Consider four molecules from ChEMBL document CHEMBL1201862, “PubChem BioAssay data set” (2004).

The AC50 is the concentration at which the activity in the assay is half-maximal.

Experiment [1] is described as follows: cells. The experiment is classed as functional, cell-based.
Experiment [2] deals with Hepatocyte nuclear factor 4-alpha (Homo sapiens, UniProt P41235). The experiment is classed as functional, cell-based.
Experiment [3] in a line: cells. The experiment is classed as functional, cell-based. This is another data set of the same source.
The target in experiment [4] is T1, Corticotropin-releasing factor receptor 2/Corticotropin-releasing factor-binding protein (Homo sapiens, UniProt P24387+Q13324).
T1 sequence (Q13324 whole entry): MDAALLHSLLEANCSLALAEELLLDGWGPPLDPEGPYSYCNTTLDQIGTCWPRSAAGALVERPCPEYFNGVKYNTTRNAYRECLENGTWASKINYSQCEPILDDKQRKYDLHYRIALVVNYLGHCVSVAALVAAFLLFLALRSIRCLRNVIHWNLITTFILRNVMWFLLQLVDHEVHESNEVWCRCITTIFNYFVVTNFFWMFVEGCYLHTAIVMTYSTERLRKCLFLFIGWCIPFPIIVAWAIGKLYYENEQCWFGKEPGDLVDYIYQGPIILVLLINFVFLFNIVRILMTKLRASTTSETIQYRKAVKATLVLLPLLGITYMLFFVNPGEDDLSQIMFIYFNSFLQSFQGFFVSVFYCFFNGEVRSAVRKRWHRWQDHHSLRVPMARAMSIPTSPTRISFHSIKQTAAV
T1 sequence (P24387 whole entry): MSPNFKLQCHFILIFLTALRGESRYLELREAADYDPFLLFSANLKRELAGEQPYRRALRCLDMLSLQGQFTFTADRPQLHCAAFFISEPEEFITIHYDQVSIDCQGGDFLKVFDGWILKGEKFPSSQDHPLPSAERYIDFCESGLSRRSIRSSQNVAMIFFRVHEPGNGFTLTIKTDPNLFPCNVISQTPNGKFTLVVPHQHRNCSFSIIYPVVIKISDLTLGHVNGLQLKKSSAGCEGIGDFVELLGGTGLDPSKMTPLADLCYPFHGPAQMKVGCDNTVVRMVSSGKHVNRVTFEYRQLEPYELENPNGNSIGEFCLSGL
Description: Dose Response confirmation of uHTS hits for small molecule antagonists of the CRF-binding protein and CRF-R2 receptor complex. The note with it: read-out: IC50_Mean. The experiment is classed as functional.

Experiment [5] is described as follows: CRF-BP/CRF-R2 complex antagonists, dose response, cell-based, uHTS hits, 384-well (AID 651639). The experiment is classed as functional, Homo sapiens. The settings on record: read-out: IC50_Mean.
The target in experiment [6] is T1, Corticotropin-releasing factor receptor 2/Corticotropin-releasing factor-binding protein. Kind of experiment: activators of CRF receptor 2 with binding protein – uHTS hits, confirmation (AID 602473). The note with it: read-out: EC50_Mean. The experiment is classed as functional.
The nature of experiment [7]: Shn3 3'UTR reporter inhibitors, dose response, cell-based, Clone20 osteoblasts, firefly luciferase, cherry-picked (AID 624132).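 Note: firefly luciferase luminescence from reporter carrying the Shn3 3'UTR in osteoblasts.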 The experiment is classed as functional.
The nature of experiment [8]: HepG2 cell cytotoxicity, dose response, cytotoxicity control for Shn3 inhibitor project, CellTiter-Glo, cherry-picked (AID 624134). The experiment is classed as functional, cell-based.
Experiment [9] has as its target T2, Protein RecA (Mycobacterium tuberculosis, UniProt P9WHJ3).
T2 sequence (P9WHJ3 whole entry): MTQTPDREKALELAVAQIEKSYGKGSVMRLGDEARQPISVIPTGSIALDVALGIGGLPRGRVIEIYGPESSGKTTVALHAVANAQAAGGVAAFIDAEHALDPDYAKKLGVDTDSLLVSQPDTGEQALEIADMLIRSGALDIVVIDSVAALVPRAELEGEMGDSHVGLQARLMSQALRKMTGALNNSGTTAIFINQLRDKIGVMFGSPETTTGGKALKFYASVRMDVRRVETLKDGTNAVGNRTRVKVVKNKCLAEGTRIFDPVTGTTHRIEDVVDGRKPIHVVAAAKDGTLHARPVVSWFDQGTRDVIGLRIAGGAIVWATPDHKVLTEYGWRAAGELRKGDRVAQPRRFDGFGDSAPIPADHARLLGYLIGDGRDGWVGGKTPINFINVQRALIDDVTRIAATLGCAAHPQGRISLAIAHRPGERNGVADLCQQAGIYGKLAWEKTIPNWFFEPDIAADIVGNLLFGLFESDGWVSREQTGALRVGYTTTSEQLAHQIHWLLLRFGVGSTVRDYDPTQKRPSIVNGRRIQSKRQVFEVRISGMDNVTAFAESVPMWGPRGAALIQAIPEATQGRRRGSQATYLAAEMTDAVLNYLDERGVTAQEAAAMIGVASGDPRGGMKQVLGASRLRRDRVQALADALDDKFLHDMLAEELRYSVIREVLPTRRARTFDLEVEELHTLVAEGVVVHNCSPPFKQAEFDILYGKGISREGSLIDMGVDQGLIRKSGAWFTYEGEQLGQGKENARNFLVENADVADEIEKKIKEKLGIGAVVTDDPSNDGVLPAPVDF
Description: Fluorescence Cell-Free Homogeneous Dose Retest to Identify Inhibitors of RecA-Intein Splicing Activity. [Related pubchem assays (depositor defined):AID2097, AID2223, AID489010, AID492950]. The experiment is classed as functional.

Experiment [10] in a line: Fluorescence-based cell-based high throughput dose response assay for inhibitors of the interaction of nucleotide-binding oligomerization domain containing 2 (NOD2) and the receptor-interacting serine-threonine kinase 2 (RIPK2). The experiment is classed as functional. The note with it: Homo sapiens.
A short description of experiment [11]: control 3'UTR Renilla luciferase suppression, dose response, counter-screen for Shn3 inhibitor project, cell-based, Clone20-Shn3RL, cherry-picked (AID 624133). The experiment is classed as functional. Background: The purpose of a counterscreen is to sort out artefacts and off-target activity.
In experiment [12] the test system is INS1. Kind of experiment: beta cell apoptosis inhibitors, cytokine rescue, dose response, luminescence, retest (AID 449756).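 Note: cell death triggered by IL-1 beta plus TNF-alpha plus IFN-gamma mixture; protective hits raise ATP signal compared with cytokine alone wells.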 The experiment is classed as functional, cell-based. The settings on record: Rattus norvegicus, INS1.
The target of experiment [13] is T3, Replicative DNA helicase DnaB (Mycobacterium tuberculosis, UniProt P9WMR3).
T3 sequence (P9WMR3 whole entry): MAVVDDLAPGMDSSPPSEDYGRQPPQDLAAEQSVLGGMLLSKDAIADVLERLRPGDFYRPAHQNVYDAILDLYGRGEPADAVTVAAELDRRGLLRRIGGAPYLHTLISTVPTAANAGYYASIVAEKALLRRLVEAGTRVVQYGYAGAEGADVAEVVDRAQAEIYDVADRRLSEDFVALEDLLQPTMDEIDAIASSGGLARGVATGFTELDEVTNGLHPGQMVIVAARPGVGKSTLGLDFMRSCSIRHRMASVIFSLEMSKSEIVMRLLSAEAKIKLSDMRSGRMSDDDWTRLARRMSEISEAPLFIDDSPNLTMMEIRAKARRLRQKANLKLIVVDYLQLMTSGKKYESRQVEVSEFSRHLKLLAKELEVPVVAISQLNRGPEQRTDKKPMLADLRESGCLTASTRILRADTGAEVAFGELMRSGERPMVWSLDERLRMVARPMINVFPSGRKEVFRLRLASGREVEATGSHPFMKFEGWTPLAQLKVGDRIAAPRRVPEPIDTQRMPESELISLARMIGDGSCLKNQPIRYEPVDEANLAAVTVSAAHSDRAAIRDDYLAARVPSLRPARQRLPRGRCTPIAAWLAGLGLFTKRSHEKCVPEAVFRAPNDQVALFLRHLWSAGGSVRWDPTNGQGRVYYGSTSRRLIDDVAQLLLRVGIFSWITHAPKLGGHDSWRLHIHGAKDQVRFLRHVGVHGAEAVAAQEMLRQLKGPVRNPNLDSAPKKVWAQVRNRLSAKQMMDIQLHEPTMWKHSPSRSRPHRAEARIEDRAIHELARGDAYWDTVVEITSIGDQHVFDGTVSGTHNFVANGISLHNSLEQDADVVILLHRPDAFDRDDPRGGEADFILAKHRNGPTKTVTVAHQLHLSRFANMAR
Description: DnaB intein splicing inhibitors, dose response, biochemical, cell-free fluorescence (AID 449749). The experiment is classed as functional.

Experiment [14] has as its target Cytochrome P450 2D6 (Homo sapiens, UniProt P10635).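 Note: CYP2D6 member of a cytochrome P450 panel assay.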
Experiment [15] deals with T4, Heat shock factor protein 1 (Mus musculus, UniProt P38532).
T4 sequence (P38532 whole entry): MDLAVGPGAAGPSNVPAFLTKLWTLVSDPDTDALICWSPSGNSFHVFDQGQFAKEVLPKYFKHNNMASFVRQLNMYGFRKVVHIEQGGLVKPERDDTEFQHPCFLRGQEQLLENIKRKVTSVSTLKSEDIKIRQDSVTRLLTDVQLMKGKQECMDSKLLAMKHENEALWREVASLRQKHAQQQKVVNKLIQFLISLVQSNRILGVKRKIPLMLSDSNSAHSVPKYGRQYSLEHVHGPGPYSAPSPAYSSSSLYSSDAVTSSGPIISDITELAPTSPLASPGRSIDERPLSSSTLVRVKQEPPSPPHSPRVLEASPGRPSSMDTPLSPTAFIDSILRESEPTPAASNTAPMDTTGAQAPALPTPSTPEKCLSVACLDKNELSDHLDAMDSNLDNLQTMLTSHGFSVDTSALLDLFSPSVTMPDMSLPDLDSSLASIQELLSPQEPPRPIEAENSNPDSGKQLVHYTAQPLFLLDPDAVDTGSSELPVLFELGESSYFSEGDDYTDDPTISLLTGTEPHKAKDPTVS
Description: HSF1 potentiators in luciferase reporter cells, confirmation, cell-based, NIH3T3, luminescence, dose retest (AID 435004).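 Note: stress induced by proteasome inhibitor MG132 added 30 min after compound; luciferase reporter driven by HSF1 response element in NIH3T3 cells; actives raise luminescence as potentiators of the MG132 stress response.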 The experiment is classed as functional.

Activity calls are given as the source filed them.

Sequence of Cytochrome P450 2D6 (P10635 whole entry): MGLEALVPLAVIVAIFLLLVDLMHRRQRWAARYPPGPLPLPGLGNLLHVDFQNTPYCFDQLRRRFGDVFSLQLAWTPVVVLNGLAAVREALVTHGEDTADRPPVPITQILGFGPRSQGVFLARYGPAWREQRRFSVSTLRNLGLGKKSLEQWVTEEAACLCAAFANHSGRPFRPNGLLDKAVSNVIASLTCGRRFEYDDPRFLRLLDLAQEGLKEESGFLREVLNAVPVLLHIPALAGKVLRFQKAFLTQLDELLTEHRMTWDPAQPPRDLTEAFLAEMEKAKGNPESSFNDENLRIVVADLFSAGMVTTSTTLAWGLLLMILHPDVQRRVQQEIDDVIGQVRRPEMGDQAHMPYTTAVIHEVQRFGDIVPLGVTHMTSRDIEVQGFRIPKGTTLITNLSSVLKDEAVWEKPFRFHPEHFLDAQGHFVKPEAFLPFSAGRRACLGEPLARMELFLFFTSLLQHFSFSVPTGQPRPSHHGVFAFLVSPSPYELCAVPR
Sequence of Hepatocyte nuclear factor 4-alpha (P41235 whole entry): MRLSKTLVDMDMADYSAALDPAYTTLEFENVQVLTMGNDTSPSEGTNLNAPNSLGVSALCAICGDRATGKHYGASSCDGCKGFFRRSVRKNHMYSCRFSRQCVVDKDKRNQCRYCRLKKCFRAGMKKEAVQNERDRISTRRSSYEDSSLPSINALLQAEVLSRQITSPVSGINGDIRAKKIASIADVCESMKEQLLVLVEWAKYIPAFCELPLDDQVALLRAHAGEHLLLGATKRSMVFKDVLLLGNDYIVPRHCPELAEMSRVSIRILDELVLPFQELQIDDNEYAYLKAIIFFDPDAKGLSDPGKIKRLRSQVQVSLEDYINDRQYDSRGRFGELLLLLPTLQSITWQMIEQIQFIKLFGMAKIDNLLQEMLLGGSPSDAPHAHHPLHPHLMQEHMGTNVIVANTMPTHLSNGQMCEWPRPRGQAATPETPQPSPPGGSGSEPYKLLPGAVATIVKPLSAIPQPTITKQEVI

As to `COc1ccccc1/C=C/C(=O)c1ccccc1`, the EC50 in experiment [1] was 6.12 µM (active); in [3] it was > 350 µM (not active). Further, the IC50 in experiment [2] was 7.12 µM (active).

As to `CCOC(=O)c1c(-c2ccccc2)oc2ccc(OC(C)C(=O)O)cc12` (stereo not drawn), the IC50 in experiment [4] is < 0.368 µM (active); in [5] it was 0.34 µM (active). In addition, the EC50 in experiment [6] was > 53 µM (inactive).

Take `O=C(NCc1cccnc1)/C(=C\c1ccc(-c2ccc(Br)cc2)o1)S(=O)(=O)c1ccccc1`: the AC50 is 6.33 µM (active) in experiment [7]; 11.3 µM (active) in [8]; 13 µM (active) in experiment [11]; 2.9 µM (active) in experiment [12]; > 380 µM (inconclusive) in experiment [13]. Also, the EC50 in experiment [9] was 20.2 µM (active). For the same molecule, the IC50 in [10] was 5.51 µM (active).

On to `COc1cccc(CSc2nnc(C(F)(F)F)n2Cc2ccc(F)cc2)c1`, for which, in experiment [14], the AC50 was 10 µM (inconclusive). Moreover, the results for the IC50 in experiment [4] and in experiment [5] were 7.2 µM (active) and > 20 µM (inactive), respectively. Further, the EC50 in experiment [15] was > 260 µM (inactive); in [6], > 53 µM (inactive).
